{
  "source": "patent US20240342244A1",
  "about": "“Isthmin Protein Therapeutics for the Treatment of Non-Alcoholic Fatty Liver Disease” (The Board of Trustees of the Leland Stanford Junior …, priority 2021, published 2024)",
  "key": {"primary mouse adipocytes": {"system": "primary mouse adipocytes", "test": "2-deoxy-3H-glucose uptake in primary mouse adipocytes", "format": "cell-based", "method": "(§1) Mouse and human pre-adipocytes culture and differentiation. Inguinal fat pads from 4-8 week old C57BL/6J male and female mice were dissected and mechanically digested for 10 min using spring scissors. Digested tissues were incubated in WAT isolation buffer (10 ml PBS, 2.4 U/ml dispase II (#04942078001, Roche), 10 mg/ml collagenase D (#11088858001, Roche) at 37° C. for 45 min. 20 mL growth media was added and the tissue suspension was filtered through a 100-μm cell strainer and centrifuged at 600×g for 5 min. The cell pellets were resuspended in 20 mL growth media, filtered through a 40-μm cell strainer, centrifuged at 600×g for 5 min, resuspended in 10 mL growth media, and plated in 10-cm collagen-coated dishes. The cells were cultured in growth media (DMEM/F-12 Glutamax, Thermo Fisher Scientific #10565018) supplemented with 10% fetal bovine serum. Two days post-confluency, differentiation was induced with growth media containing 1 μM rosiglitazone, 0.5 mM isobutylmethylxanthine, 1 μM dexamethasone, 5 μg/mL insulin. After two days, cells were re-fed with growth media containing 1 μM rosiglitazone and 5 μg/mL insulin. Cells were fully differentiated after 6-8 days. For ISM1 knockdown or overexpression in primary adipocytes using adenovirus, 500 μL crude virus was mixed with 500 μL fresh growth media containing 1 μM rosiglitazone and 5 μg/mL insulin was added to each well at day 2 of differentiation. At day 4, virus-containing media was removed and 500 μL fresh growth media without stimulators was added to each well. SGBS cells were differentiated as described previously (Fischer-Posovszky et al., 2008; Wabitsch et al., 2001). Briefly, cells were cultured in growth media DMEM/F-12 Glutamax, supplemented with 10% fetal bovine serum, 33 uM biotin, and 17 uM pantothenate. Two days post confluency, differentiation was induced with serum-free DMEM/F12 media containing 33 uM biotin, 17 uM pantothenate, 0.01 mg/ml transferrin, 20 nM insulin, 100 nM cortisol, 0.2 nM triiodothyronine, 25 nM dexamethasone, 0.25 mM isobutyl methylxanthine, and 2 μM rosiglitazone. After four days, cells were re-fed with growth media containing 0.01 mg/ml transferrin 20 nM insulin, 100 nM cortisol, 0.2 nM triiodothyronine. Cells were fully differentiated after day 8-10.\n(§2) Glucose uptake. Glucose uptake was performed as previously described (You et al., 2017). Briefly, 2-Deoxy-d-[2,6-3H]-glucose was purchased from PerkinElmer NEN radiochemicals. Fully differentiated adipocytes were washed with KRH buffer and starved in 0.5% BSA in KRH buffer for 4 h. Indicated concentrations of insulin or ISM1 were added at indicated time points. Cells were treated with a mixture of 500 μM 2-deoxy-D-glucose and 1.71 μCimL^−1 2-Deoxy-D-[1,2-3H (N)]-glucose for another 10 min followed by three washes using ice cold KRH buffer containing 200 mM glucose. The passive glucose uptake in the presence of 50 uM CytoB was less than 12% of the total glucose uptake. Cells were solubilized in 1% SDS and radioactivity was measured by liquid scintillation counting."}, "pAKT^S473 [1]": {"system": "pAKT^S473", "test": "Signaling induced by ISM1 or insulin in 3T3-F442A cells pre-treated with inhibitors", "format": "cell-based", "conditions": "for effect of inhibitor on pAKT^S473 phosphorylation induced by ISM1 and insulin: ISM1 100 nM or insulin 100 nM, 3T3-F442A cells", "method": "(§3) Western blots and molecular analyses. For western blotting, homogenized tissues or whole-cell lysates, samples were lysed in RIPA buffer containing protease inhibitor cocktail (Roche) and phosphatase inhibitor cocktail (Roche). Cell lysates were centrifuged at 14,000×g for 15 min and supernatants were prepared in 4×LDS Sample Buffer (Invitrogen) and separated by SDS-PAGE and transferred to Immobilon 0.45 μm membranes (Millipore). For Western blotting of plasma samples, 1 μl of plasma was prepared in 2× sample buffer (Invitrogen) with reducing agent, boiled, and analyzed using Western blot against indicated antibody. Protein kinase array (R&D systems ARY003B) was performed according to the manufacturers' description. All antibodies used in this paper are described in STAR methods."}, "DIO mice": {"system": "DIO mice", "test": "Therapeutic ISM1, Metformin or combined administration for 21 days in DIO mice", "format": "in vivo, mouse", "conditions": "daily for 21 days; compared with vehicle", "method": "Therapeutic ISM1 recombinant protein administration in vivo. All pharmacologic studies using recombinant ISM1 protein were performed in mice with established diet-induced obesity or non-alcoholic fatty liver disease (NAFLD). For all experiments, male C57BL/6J mice purchased from Jax were fed either a high-fat diet (#D12492, Research Diets) or a NAFLD diet (#D09100310, Research Diets) prior to ISM1 protein injections. In all experiments, mice were mock injected with saline for three days prior to protein or drug injections to prevent stress-induced weight loss. Mice were I.P. injected with vehicle (saline) or indicated doses of ISM1 protein diluted in saline. For the 14-day experiments in NAFLD mice, 7-weeks old mice were fed with NAFLD diet for 3 weeks and then mock injected with saline for 3 days prior to protein injections. The induction of lipid accumulation with NAFLD diet was verified by the significant increase in hepatic lipid levels compared with mice on chow diet at the same time point. NAFLD mice were then daily I.P. injected with either vehicle (saline containing 5% DMSO and 10% Kolliphor) or indicated doses of ISM1 protein (500 μg/kg or 5 mg/kg) or with FXR agonist (30 mg/kg, GW4064, Sigma-Aldrich, #G5172) diluted in vehicle (saline containing 5% DMSO and 10% Kolliphor). For the 21-day experiments in HFD mice, mice were mock injected with saline for three days prior to protein injections. Mice were then daily I.P. injected with either vehicle (saline) or 5 mg/kg of ISM1 protein diluted in saline. Metformin (100 mg/kg, Sigma, #317240) was diluted in saline and daily administered by oral gavage. All groups received control injections by I.P. and oral gavage. At the end of the experiments, mice and tissue weights were recorded. Tissues and plasma were collected and frozen for further analyses.\nGlucose tolerance and insulin tolerance tests. For glucose tolerance tests, mice were fasted overnight and I.P. injected with glucose at 2 g/kg body weight. Blood glucose levels were measured at 0, 15, 30, 45, 60, 90 and 120 mins. For insulin tolerance tests, mice were fasted for 2 h, and I.P. injected with 0.75 U/kg insulin. Blood glucose levels were measured at 0, 15, 30, 45, 60, 90 and 120 mins."}, "human SGBS adipocytes": {"system": "human SGBS adipocytes", "test": "2-deoxy-3H-glucose uptake in human SGBS adipocytes", "format": "cell-based", "conditions": "50 nM OSI-906", "method": "as §1, §2"}, "pAKT^S473 [2]": {"system": "pAKT^S473", "test": "pAKT S473 signaling in 3T3-F442A cells (phosphokinase array, western blot)", "format": "cell-based", "conditions": "100 nM; 5 min", "method": "as §3"}, "[3]": {"conditions": "pre-treated for 30 min, ISM1 or insulin 100 nM"}},
  "data": [
    {"molecule": "C=C1[C@@H](C)[C@H]2[C@H](Cc3ccccc3)NC(=O)[C@]23OC(=O)/C=C/[C@H](O)CCC[C@@H](C)C/C=C/[C@H]3[C@@H]1O", "note": "[CytoB, reference compound]", "values": [
      {"measurement": "passive glucose uptake as share of total glucose uptake", "setting": "primary mouse adipocytes; 50 uM CytoB", "result": "less than 12%"}
    ]},
    {"molecule": "COc1ccccc1N1CCN(c2ncnc3n[nH]c(Br)c23)CC1", "note": "[DG2]", "values": [
      {"measurement": "effect of inhibitor on S6^S235/S236", "setting": "pAKT^S473 [1]; [3]", "result": "dose-dependently inhibited"},
      {"measurement": "pAKT in presence of inhibitor", "setting": "pAKT^S473 [1]; [3]", "result": "remained intact"}
    ]},
    {"molecule": "CCOc1cn(-c2ccc(F)cc2C)nc1C(=O)Nc1ccc(Oc2ccnc3cc(OC)c(OC)cc23)c(F)c1", "note": "[LDC1267]", "values": [
      {"measurement": "effect of inhibitor on signaling induced by PDGFββ or insulin", "setting": "pAKT^S473 [1]; any of the doses tested, insulin 200 nM, PDGF-ββ 20 ng/ml", "result": "neither the signaling induced by PDGFββ or insulin are inhibited"},
      {"measurement": "effect of inhibitor on ISM1-induced pAKT signaling", "setting": "pAKT^S473 [1]; pre-treated for 30 min, ISM1 200 nM", "result": "inhibited"}
    ]},
    {"molecule": "CN(C)C(=N)N=C(N)N", "note": "[Metformin, reference compound]", "values": [
      {"measurement": "fasting blood glucose", "setting": "DIO mice", "result": "lower"},
      {"measurement": "glucose tolerance (GTT)", "setting": "DIO mice", "result": "comparable effects on improving glucose tolerance"}
    ]},
    {"molecule": "C[C@]1(O)C[C@@H](c2nc(-c3ccc4ccc(-c5ccccc5)nc4c3)c3c(N)nccn32)C1", "note": "[OSI-906, reference compound]", "values": [
      {"measurement": "insulin-induced glucose uptake in presence of inhibitor", "setting": "human SGBS adipocytes", "result": "significantly reduced"},
      {"measurement": "ISM1-induced glucose uptake in presence of inhibitor", "setting": "human SGBS adipocytes; 100 nM ISM1", "result": "not affected"},
      {"measurement": "insulin signaling in presence of inhibitor", "setting": "pAKT^S473 [1]; 1000 nM OSI-906, insulin 100 nM", "result": "completely abolished"},
      {"measurement": "ISM1 signaling in presence of inhibitor", "setting": "pAKT^S473 [1]; even at 1000 nM OSI-906, ISM1 100 nM", "result": "intact"}
    ]},
    {"molecule": "COc1ncc(-c2ccc3nccc(-c4ccnnc4)c3c2)cc1NS(=O)(=O)c1ccc(F)cc1F", "note": "[Omipalisib]", "values": [
      {"measurement": "effect of inhibitor on pAKT^S473 phosphorylation induced by ISM1 and insulin", "setting": "pAKT^S473 [1]", "result": "completely block"}
    ]},
    {"molecule": "Cc1ccc([N+](=O)[O-])cc1S(=O)(=O)N(C)/N=C/c1cnc2ccc(Br)cn12", "note": "[PIK]", "values": [
      {"measurement": "effect of inhibitor on pAKT^S473 phosphorylation induced by ISM1 and insulin", "setting": "pAKT^S473 [1]", "result": "completely block"}
    ]},
    {"molecule": "CCC(=O)N1CCN(c2ccc(-n3c(=O)ccc4cnc5ccc(-c6cnc7ccccc7c6)cc5c43)cc2C(F)(F)F)CC1", "note": "[Torin]", "values": [
      {"measurement": "effect of inhibitor on pAKT^S473 phosphorylation induced by ISM1 and insulin", "setting": "pAKT^S473 [1]", "result": "fully ablates"}
    ]},
    {"molecule": "Thrombospondin-1: his-tagged mouse Thrombospondin-1, control protein containing thrombospondin domains [reference compound]", "values": [
      {"measurement": "bioactivity on pAKT^S473 (western blot)", "setting": "pAKT^S473 [2]", "result": "no bioactivity"}
    ]},
    {"molecule": "albumin [reference compound]", "values": [
      {"measurement": "glucose uptake (protein control)", "setting": "primary mouse adipocytes; 100 nM", "result": "no effect"}
    ]}
  ]
}
